The nature of experiment [1]: Activation of glmS riboswitch in Staphylococcus aureus.
The nature of experiment [2]: Binding affinity to TPP riboswitch in Bacillus subtilis.
Experiment [3] is described as follows: Binding affinity to lysC riboswitch in Bacillus subtilis.
A further experiment relates to Bacillus subtilis. The experiment in a line: Antibacterial activity against Bacillus subtilis in chemical defined medium. The class given is functional.
The nature of experiment [4]: Binding affinity to TPP riboswitch in Escherichia coli.
Experiment [5] can be described thus: Binding affinity to guanine riboswitch in Bacillus subtilis.
A short description of experiment [6]: Binding affinity to thiM riboswitch in Escherichia coli.
Experiment [7] can be described thus: Binding affinity to thiC riboswitch in Escherichia coli.
Experiment [8] in a line: Activation of glmS riboswitch in Bacillus subtilis.
For experiment [9], the system named is Staphylococcus aureus. The experiment in a line: Antibacterial activity against Staphylococcus aureus in rich cation-adjusted Muller-Hinton broth in presence of 1.5 mM DTT. It counts as functional.
The subject of experiment [10] is Staphylococcus aureus. The experiment in a line: Antibacterial activity against Staphylococcus aureus in rich cation-adjusted Muller-Hinton broth. The class given is functional.

Converted amounts (≈) assume the structure as drawn.

One may read the EC50 as the concentration giving half of the maximal effect. A low value points to higher potency in that assay. As for `N[C@@H]1[C@@H](O)[C@H](O)[C@@H](COP(=O)(O)O)C[C@@H]1O`, the EC50 in experiment [1] came to 6.2 µM.
One may read the Kd as the concentration at which binding is half-saturated. Read a high Kd as lower affinity. In experiment [2], `Cc1ncc(C[n+]2cccc(CCOP(=O)([O-])OP(=O)(O)O)c2C)c(N)n1` came in with a Kd of 0.16 µM.
What is called MIC is the least concentration at which growth counts as inhibited. Consider `NCCOC[C@H](N)C(=O)O`, for which binding in experiment [3] was characterised by a dissociation constant (Kd) of 13 µM. Further, it took 26 µM (≈ 3.85 µg/mL) to inhibit growth in the experiment on Bacillus subtilis (MIC).
`NCCSC[C@H](N)C(=O)O` yielded a Kd in experiment [3] of 30 µM. This compound also registered an MIC in the experiment with Bacillus subtilis of 26 µM (≈ 4.27 µg/mL).
For `Cc1ncc(Cn2cc(CCOP(=O)(O)OP(=O)(O)O)nn2)c(N)n1`, the Kd in experiment [4] was 0.37 µM.
As for `CC(=O)Nc1nc(=O)c2[nH]cnc2[nH]1`, the Kd in [5] was determined as 0.0005 µM.
Consider `Cc1ncc(C[n+]2csc(CCOP(=O)([O-])OP(=O)(O)O)c2C)c(N)n1` [THIAMIN DIPHOSPHATE], for which the results for the Kd in experiment [6], in experiment [2] and in experiment [7] were 0.6 µM, 0.05 µM and 0.1 µM, respectively.
Consider `NCCCC[C@H](N)C(=O)O` [LYSINE], for which the affinity in experiment [3], expressed as Kd, was 0.36 µM.
As to `N[C@H]1C(O)O[C@H](COP(=O)(O)O)[C@@H](O)[C@@H]1O` (stereo partly specified), in [8], the EC50 stood at 200 µM.
In turn, `NC/C=C/CC(N)C(=O)O` (racemic) gave a Kd in [3] of 0.97 µM.
`Nc1nc(N)c(N)c(=O)[nH]1`: the MIC was 14 µM in the experiment with Staphylococcus aureus [9] and 4000 µM (≈ 565 µg/mL) in the experiment on Staphylococcus aureus [10]. Further, the Kd in [5] came to 0.1 µM.
The compound `Cc1ncc(Cn2nnc(CCOP(=O)(O)CP(=O)(O)O)c2C)c(N)n1` had a Kd in experiment [4] of 0.009 µM.
In turn, `N=C(N)NCCCC[C@H](N)C(=O)O` registered a Kd in [3] of 7 µM.
Turning to `Nc1nc2[nH]cnc2/c(=N\O)[nH]1`, the Kd in experiment [5] worked out at 0.02 µM.
Same read-out and setting: to `Nc1nc2[nH]cnc2c(=O)[nH]1` [GUANINE] belongs 0.005 µM.
